{"source": "patent US9987302B2", "about": "“Methods of treating DNA damage” (priority 2011, dated 2018)", "key": {"[1]": {"system": "fibroblasts from Hmox1+/+ and Hmox1−/− mice", "experiment": "H2AX phosphorylation / γ-H2AX foci in mouse fibroblasts treated with genotoxins", "type": "cell-based", "conditions": "doxorubicin 10 μg/ml, camptothecin 1 μg/ml; for phosphorylation of histone H2AX and γ-H2AX foci: Hmox+/+ fibroblasts", "description": "Representative pictures are shown from at least two independent experiments in duplicates. Fibroblasts were treated with doxorubicin (10 μg/ml) for 2-4 hr.\n(§1) U203 HR/SCR cells were maintained in the DMEM medium (Gibco, Invitrogen) containing 10% FBS and antibiotics. pPHW1 cells (NHEJ model) were maintained in the DMEM medium with 10% FBS and antibiotics. Mouse kidney fibroblasts were obtained from adult Hmox1^−/− and Hmox1^+/+ mice and culture between passages 4-7 in DMEM medium supplemented with 10% FBS and antibiotics. HEK293 were purchased from ATCC and were cultured following manufacturer's protocol. For CO in vitro studies, cells were exposed to 250 ppm CO, 5% CO2 in […] for 2 minutes to 24 hours. Cells were irradiated with 10 Gy and harvested at different time points after single exposure."}, "[2]": {"system": "HEK293 cells", "experiment": "Western blot of DNA repair signaling in HEK293 cells treated with genotoxins", "type": "cell-based", "conditions": "2 min to 2 h", "quoted_text": "The direct effects of HO-1 was tested on signaling pathways in response to the DNA damaging agents, doxorubicin, camptothecin, or irradiation in loss and gain of function studies with HO-1. HEK293cells express high basal levels of HO-1 due to presence of large T antigen. HEK293 cells were transduced with micro-adapted shRNA to stably deplete HO-1 and then exposed to camptothecin, doxorubicin or irradiation. HEK293 cells with stable knockdown of HO-1 (mirHO-1) and control cells were treated with camptothecin (1 μg/ml) for 2′-2 h. The levels of HO-1 and DNA repair signaling proteins activation was measured by Western blot.\nThe status of the major DNA repair kinases, ATR, and ATM and their downstream targets was evaluated in HEK293 cells treated with camptothecin.\nHEK mirHO-1 and control cells treated with doxorubicin (10 μg/ml) for 2′-2 h is shown. […] Akt is a loading control for the immunoblot for P-p53."}, "[3]": {"system": "U2OS-SCR reporter cells", "experiment": "HR/SCR reporter assay (GFP-positive cells by flow cytometry and fluorescence microscopy)", "type": "cell-based", "conditions": "for CO-mediated HR (GFP-positive cells) under ATM/ATR blockade: inhibitor 20 μM 1 hour prior to CO 250 ppm for 24 hours; for number of GFP-positive cells (HR repair of DSB): U2OS-SCR cells transfected with SceI 24 hours, then treated 24 hours, CO 250 ppm", "text": "To test this, the U20S cell line containing the HR/SCR (homologous recombination/sister chromatid recombination) reporter was used as previously described (12,13). I-SceI endonuclease was used to introduce a double strand break (DSB) within the reporter in U2OS cells. The efficiency of homologous recombination induced by I-SceI correlated with generation of wild type GFP by gene conversion.\n(§2) Many of the effects observed with HO-1 are mediated by one or more of its enzymatic products biliverdin or CO. Therefore, the role of biliverdin and CO was tested separately in HR during DSB and DNA repair. U2OS-SCR reporter cells after transfection with SceI for 24 hours were treated with CO 250 (ppm) for 24 hours. […] No effects of CO were observed on NHEJ-mediated DNA repair as measured by number of XHATM-resistant colonies.\n(§3) Lysates of PC3 and HEK cells were treated with CO (250 ppm) for 2′ to 1 h. […] Therefore, the two major DNA repair kinases, ATM and ATR, were examined to see if they are implicated in accelerated HR in the presence of CO or HO-1. […] U20S-SCR reporter cells were transfected with SceI for 24 hours and treated with CGK733 (20 μM) or DMSO for 1 hour prior treatment with CO (250 ppm) for 24 hours. U20S-SCR reporter cells were co-transfected with SceI for 24 hours and KU55933 (20 μM) or DMSO for 1 hour prior treatment with CO (250 ppm) was applied for following 24 hours. […] U20S-SCR reporter cells were co-transfected with SceI and HO-1 for 24 hours and CGK733 was applied for following 24 hours.\nas §1\nHR/SCR reporter U20S cells were used as previously described. Briefly, GFP+ cells were analyzed 2 days postransfection by flow cytometry (FACScan, BD Biosciences) and fluorescence microscopy. Images of GFP-positive cells were captured of randomized fields using a Zeiss Apotome fluorescent microscope."}, "[4]": {"system": "H2AXγ foci in tissues", "experiment": "DNA damage (H2AXγ foci) in tissues of nude mice with PC3 tumors treated with doxorubicin ± CO", "type": "in vivo", "description": "Based on the effects observed in vitro, the salutary effects of CO were tested in an in vivo model of DNA damage in mice. Tissues were harvested 14 days after treatment of nude mice with established PC3 tumors (2 weeks) with […] (Control) or doxorubicin (8 mg/kg, twice per week, i.v.)±CO (daily, 1 hour, 250 ppm). Doxorubicin was employed to induce DNA damage in the tissues during chemotherapeutic treatment of tumor xenografts in nude mice.\nNu/nu mice were purchased from Taconic (Hudson, N.Y.) at 7 weeks of age. Those mice were used in a complementary experiment of a subcutaneous tumor model of PC3 cells injected into the right flank of mice. Doxorubicin (8 mg/kg, Sigma) was given i.v. twice per week and mice were exposed to CO daily (250 ppm for 1 hour). Tissues were harvested after 2 weeks of treatment."}, "[5]": {"system": "HEK cells", "experiment": "Immunoblot of DNA repair signaling after CO exposure", "type": "cell-based", "conditions": "CO 250 ppm, 2 minutes to 1 h", "description": "as §3, §1"}, "[6]": {"system": "irradiated mice", "experiment": "Radiation-induced model of DNA damage (lethal irradiation, 10 Gy)", "type": "in vivo", "description": "To support the observations with chemical genotoxins, a radiation-induced model of DNA damage was also used. Endogenous HO-1 is induced early in response to IR or doxorubicin and its expression is sustained for 24-72 hours in the spleen, liver and kidney (FIGS. 7A-B). Kidneys and spleen were harvested after 2 hours after irradiation. To evaluate the role of exogenous CO, mice were pretreated with CO for 1 hour prior to either a lethal or sublethal dose of irradiation and then daily for 1 hour. Spleens and intestines of mice were pretreated with Air or CO (250 ppm) 1 hour prior lethal dose of irradiation (10 Gy) and treated daily with CO for 11 days. […] Tissues were harvested 2 hours after irradiation. To evaluate the role of H2AX signaling in CO effects on DNA repair, marginal bone marrow transplantation of BM cells from H2ax^−/− and H2ax^+/+ mice into wild type irradiated recipients was used. Mice were treated with CO prior lethal dose of irradiation (10 Gy) and thereafter after receiving BM.\nMale C57BL/6 mice 7-9 weeks of age were purchased from Jackson Laboratories (Bar Harbor, Me.). Mice were held under SPF conditions and the experiments were approved by the IACUC at BIDMC. Mice were irradiated with 10 Gy (lethal dose) or 5 Gy (sublethal dose) and the protocol was approved by Radiation Safety Officer at BIDMC and the IACUC. Mice were exposed in plexiglass chamber to CO for 1 hour, 250 ppm prior irradiation and thereafter every day for 1 hour.\nMice were lethally irradiated and transplanted with […] i.v. immediately after irradiation. The amount of injected BM was sufficient for recovery of 40% mice."}, "[7]": {"system": "pPHW1 cells (NHEJ model)", "experiment": "NHEJ-mediated DNA repair (number of XHATM-resistant colonies)", "type": "cell-based", "description": "as §2, §1"}, "[8]": {"system": "lung and intestine gene expression", "experiment": "Gene expression in tissues of mice exposed to inhaled CO (real time PCR)", "type": "in vivo", "description": "This is important given that the lung has such a high rate of cellular turnover. The increase in expression of these genes is associated with decreased senescence and extension of life span.\nMale C57Bl/6 mice were exposed to inhaled carbon monoxide at 250 parts per million (ppm) for 1 hour. […] Real time PCR for telomerase in lungs, and topoisomerase (responsible for unwinding of DNA) and p16 (cell cycle suppressor) in intestines was performed, and expression was compared to air-exposed controls (FIG. 10). Results represent mean±SD of at least 3 mice/group, * p<0.05."}, "[9]": {"conditions": "CO 250 ppm 1 hour, harvested immediately, versus air"}, "[10]": {"conditions": "CO 1 hour, harvested at 24 hours"}}, "data": [{"smiles": "CC[C@@]1(O)C(=O)OCc2c1cc1n(c2=O)Cc2cc3ccccc3nc2-1", "note": "[camptothecin]", "values": [{"measurement": "phosphorylation of histone H2AX and γ-H2AX foci", "setting": "[1]", "result": "strong increase"}, {"measurement": "phosphorylation of H2AX", "setting": "[2]; wild-type HEK293 cells, camptothecin 1 μg/ml", "result": "induced phosphorylation"}]}, {"smiles": "O=c1cc(-c2cccc3c2Sc2ccccc2S3)oc(N2CCOCC2)c1", "note": "[KU55933]", "values": [{"measurement": "CO-mediated HR (GFP-positive cells) under ATM/ATR blockade", "setting": "[3]", "result": "significantly decreased"}]}, {"smiles": "O=C(NC(NC(=S)Nc1ccc(F)c([N+](=O)[O-])c1)C(Cl)(Cl)Cl)C(c1ccccc1)c1ccccc1", "note": "(centres unmarked) [CGK733]", "values": [{"measurement": "HO-1-induced HR (GFP-positive cells) in presence of inhibitor", "setting": "[3]; co-transfected with SceI and HO-1 for 24 hours, inhibitor applied following 24 hours", "result": "did not increase HR"}, {"measurement": "CO-mediated HR (GFP-positive cells) under ATM/ATR blockade", "setting": "[3]", "result": "significantly decreased"}]}, {"smiles": "COc1cccc2c1C(=O)c1c(O)c3c(c(O)c1C2=O)C[C@@](O)(C(=O)CO)C[C@@H]3O[C@H]1C[C@H](N)[C@H](O)[C@H](C)O1", "note": "[Doxorubicin, doxorubicin]", "values": [{"measurement": "DNA damage by accumulation of H2AXγ foci", "setting": "[4]; doxorubicin 8 mg/kg i.v. twice per week, 14 days, lung, liver, kidney and colon", "result": "substantial DNA damage"}, {"measurement": "γ-H2AX foci formation", "setting": "[1]; Hmox1−/− fibroblasts", "result": "no γ-H2AX foci formation"}, {"measurement": "phosphorylation of histone H2AX and γ-H2AX foci", "setting": "[1]", "result": "strong increase"}, {"measurement": "phosphorylation of ATM, p53 and H2AX", "setting": "[2]; HEK293 cells, doxorubicin 10 μg/ml", "result": "increase"}]}, {"smiles": "[C-]#[O+]", "note": "[CO, carbon monoxide]", "values": [{"measurement": "phosphorylation of Brca1, ATR and ATM", "setting": "[5]", "result": "induced rapid phosphorylation"}, {"measurement": "sustained H2AXγ foci formation in spleen and intestine", "setting": "[6]; CO 250 ppm 1 hour prior to 10 Gy, then daily for 11 days", "result": "significant inhibition"}, {"measurement": "P-p53, P-Brca1, P-ATM and early P-H2AX in peripheral blood mononuclear cells and bone marrow", "setting": "[6]; CO 1 hour prior to irradiation, tissues harvested 2 hours after irradiation, versus air", "result": "strong induction"}, {"measurement": "survival rate, mice alive >10 days", "setting": "[6]; lethal irradiation, CO 250 ppm 1 hour prior and daily, n=6/group, p=0.031 versus air (50%)", "result": 80, "unit": "%"}, {"measurement": "CO-mediated protection against irradiation-induced death with H2ax−/− donor BM", "setting": "[6]; marginal bone marrow transplantation into wild type recipients irradiated with 10 Gy", "result": "reversed"}, {"measurement": "NHEJ-mediated DNA repair, number of XHATM-resistant colonies", "setting": "[7]", "result": "No effects"}, {"measurement": "severity of doxorubicin-induced DNA damage (H2AXγ) in all organs", "setting": "[4]; CO daily, 1 hour, 250 ppm, with doxorubicin", "result": "significantly decreased"}, {"measurement": "number of GFP-positive cells (HR repair of DSB)", "setting": "[3]", "result": "significantly increased"}, {"measurement": "expression of p16 in intestines", "setting": "[8]; [9]", "result": "increases expression"}, {"measurement": "expression of telomerase in lungs", "setting": "[8]; [9]", "result": "increases expression"}, {"measurement": "expression of topoisomerase in intestines", "setting": "[8]; [9]", "result": "increases expression"}, {"measurement": "expression of SIRT1 in the lung", "setting": "[8]; [10]", "result": "increased expression"}, {"measurement": "expression of TERT in the lung", "setting": "[8]; [10]", "result": "increased expression"}]}, {"smiles": "C=CC1=C(C)/C(=C/C2=NC(=C\\c3[nH]c(/C=C4\\NC(=O)C(C)=C4C=C)c(C)c3CCC(=O)O)/C(CCC(=O)O)=C2C)NC1=O", "note": "[Biliverdin, biliverdin]", "values": [{"measurement": "number of GFP-positive cells (HR repair of DSB)", "setting": "[3]", "result": "no effect"}]}]}
